Experimental data from ChEMBL document CHEMBL1201862, “PubChem BioAssay data set” (2004).
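These data come from cells grown in 96-well plates and exposed to compound for 48 hours at five concentrations. GI50: concentration for 50% inhibition of growth.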 Active and inactive are the calls of the source. Rule as the data show it: active = GI50 up to about 1.1 µM and inactive = higher.

Experiments:
Test in all cases: NCI tumour cell line growth inhibition, 48 h
HCC 2998 = system: HCC 2998
EKVX = system: EKVX
NCI-H460 = system: NCI-H460
NCI/ADR-RES = system: NCI/ADR-RES
HL-60 = system: HL-60
T47D = system: T47D
OVCAR-4 = system: OVCAR-4
TK-10 = system: TK-10
BT-549 = system: BT-549
RXF 393 = system: RXF 393
M14 = system: M14
NCI-H522 = system: NCI-H522
ACHN = system: ACHN
UACC-257 = system: UACC-257
HCT-15 = system: HCT-15
SF-539 = system: SF-539
SNB-19 = system: SNB-19
MOLT-4 = system: MOLT-4
CAKI-1 = system: CAKI-1
OVCAR-8 = system: OVCAR-8

In the case of `COC(=O)CN(CC(O)C(NC(C)=O)C(O)C=O)C(=O)OCc1ccccc1` (centres undefined), the GI50 (HCC 2998) was > 100 µM (inactive), the GI50 (EKVX) was > 100 µM (inactive) and the GI50 (NCI-H460) was > 100 µM (inactive). The GI50 (NCI/ADR-RES) was > 100 µM (inactive), the GI50 (HL-60) was > 100 µM (inactive) and the GI50 (T47D) was > 100 µM (inactive). The GI50 (OVCAR-4) was > 100 µM (inactive), the GI50 (TK-10) was > 100 µM (inactive) and the GI50 (BT-549) was > 100 µM (inactive). For the same compound, the GI50 (RXF 393) was > 100 µM (inactive), the GI50 (M14) was > 100 µM (inactive) and the GI50 (NCI-H522) was > 100 µM (inactive). For the same compound, the GI50 (ACHN) was > 100 µM (inactive), the GI50 (UACC-257) was > 100 µM (inactive) and the GI50 (HCT-15) was greater than 31.6 µM. The GI50 (SF-539) was > 100 µM (inactive), the GI50 (SNB-19) was > 100 µM (inactive) and the GI50 (MOLT-4) was > 100 µM (inactive). For the same compound, the GI50 (CAKI-1) was > 100 µM (inactive) and the GI50 (OVCAR-8) was > 100 µM (inactive).

For `N#Cc1cc2c(n(C3OC(CO)C(O)C(O)C3O)c1=S)CCCCCC2` (centres undefined), the GI50 (HCC 2998) was > 100 µM (inactive), the GI50 (NCI-H460) was > 100 µM (inactive) and the GI50 (NCI/ADR-RES) was > 100 µM (inactive). For the same compound, the GI50 (HL-60) was > 100 µM (inactive), the GI50 (T47D) was 80.2 µM (inactive) and the GI50 (OVCAR-4) was > 100 µM (inactive). For the same compound, the GI50 (TK-10) was > 100 µM (inactive), the GI50 (BT-549) was > 100 µM (inactive) and the GI50 (RXF 393) was > 100 µM (inactive). The GI50 (M14) was > 100 µM (inactive), the GI50 (NCI-H522) was > 100 µM (inactive) and the GI50 (ACHN) was > 100 µM (inactive). The GI50 (UACC-257) was > 100 µM (inactive), the GI50 (HCT-15) was greater than 100 µM and the GI50 (SF-539) was > 100 µM (inactive). The GI50 (SNB-19) was > 100 µM (inactive), the GI50 (MOLT-4) was > 100 µM (inactive) and the GI50 (CAKI-1) was > 100 µM (inactive). For the same compound, the GI50 (OVCAR-8) was > 100 µM (inactive).

With `OC1(c2ccccc2)CSc2ncnn21` (centres undefined) the GI50 (HCC 2998) was > 100 µM (inactive), the GI50 (EKVX) was > 100 µM (inactive) and the GI50 (NCI-H460) was > 100 µM (inactive). The GI50 (NCI/ADR-RES) was > 100 µM (inactive), the GI50 (HL-60) was > 100 µM (inactive) and the GI50 (T47D) was > 100 µM (inactive). The GI50 (OVCAR-4) was > 100 µM (inactive), the GI50 (TK-10) was > 100 µM (inactive) and the GI50 (BT-549) was > 100 µM (inactive). For the same compound, the GI50 (RXF 393) was > 100 µM (inactive), the GI50 (M14) was > 100 µM (inactive) and the GI50 (NCI-H522) was > 100 µM (inactive). The GI50 (ACHN) was > 100 µM (inactive), the GI50 (UACC-257) was > 100 µM (inactive) and the GI50 (HCT-15) was greater than 100 µM. The GI50 (SF-539) was > 100 µM (inactive), the GI50 (SNB-19) was > 100 µM (inactive) and the GI50 (MOLT-4) was > 100 µM (inactive). The GI50 (CAKI-1) was > 100 µM (inactive) and the GI50 (OVCAR-8) was > 100 µM (inactive).

For `N#Cc1c(NC(=S)Nc2ccc(Cl)cc2)sc2c1CCN(N1CCc3c(sc(NC(=S)Nc4ccc(Cl)cc4)c3C#N)C1)C2`, the GI50 (HCC 2998) was 50.2 µM (inactive), the GI50 (EKVX) was 18.2 µM (inactive) and the GI50 (NCI-H460) was 32.4 µM (inactive). The GI50 (NCI/ADR-RES) was 76.6 µM (inactive), the GI50 (HL-60) was 30.2 µM (inactive) and the GI50 (T47D) was 21.6 µM (inactive). The GI50 (OVCAR-4) was 59.3 µM (inactive), the GI50 (TK-10) was 41 µM (inactive) and the GI50 (BT-549) was 36.6 µM (inactive). For the same compound, the GI50 (RXF 393) was 18.3 µM (inactive), the GI50 (M14) was 11 µM (inactive) and the GI50 (NCI-H522) was 18.2 µM (inactive). For the same compound, the GI50 (ACHN) was 12.7 µM (inactive), the GI50 (UACC-257) was 29.7 µM (inactive) and the GI50 (HCT-15) was 24 µM. The GI50 (SF-539) was 16.8 µM (inactive), the GI50 (SNB-19) was 64 µM (inactive) and the GI50 (MOLT-4) was 48.1 µM (inactive). The GI50 (CAKI-1) was 63.8 µM (inactive) and the GI50 (OVCAR-8) was 29.3 µM (inactive).

In the case of `Cc1ccc(N2C(=O)CC(=O)N(NC(=O)C(C)Oc3ccccc3C)C2=S)cc1` (centres undefined), the GI50 (HCC 2998) was > 100 µM (inactive), the GI50 (EKVX) was > 100 µM (inactive) and the GI50 (NCI-H460) was > 100 µM (inactive). For the same compound, the GI50 (NCI/ADR-RES) was > 100 µM (inactive), the GI50 (HL-60) was > 100 µM (inactive) and the GI50 (T47D) was > 100 µM (inactive). For the same compound, the GI50 (OVCAR-4) was > 100 µM (inactive), the GI50 (TK-10) was > 100 µM (inactive) and the GI50 (BT-549) was > 100 µM (inactive). The GI50 (RXF 393) was > 100 µM (inactive), the GI50 (M14) was > 100 µM (inactive) and the GI50 (NCI-H522) was > 100 µM (inactive). For the same compound, the GI50 (ACHN) was > 100 µM (inactive), the GI50 (UACC-257) was > 100 µM (inactive) and the GI50 (HCT-15) was greater than 100 µM. For the same compound, the GI50 (SF-539) was > 100 µM (inactive), the GI50 (SNB-19) was > 100 µM (inactive) and the GI50 (MOLT-4) was 48 µM (inactive). The GI50 (CAKI-1) was > 100 µM (inactive) and the GI50 (OVCAR-8) was > 100 µM (inactive).

With `COc1ccc2c(c1)-c1c(c3ccccc3n1CCN1CCCCC1)CC2` the GI50 (HCC 2998) was 6.87 µM (inactive), the GI50 (EKVX) was 26.8 µM (inactive) and the GI50 (NCI-H460) was 16.6 µM (inactive). The GI50 (NCI/ADR-RES) was 6.25 µM (inactive), the GI50 (HL-60) was 2.63 µM (inactive) and the GI50 (T47D) was 18.9 µM (inactive). For the same compound, the GI50 (OVCAR-4) was 25.6 µM (inactive), the GI50 (TK-10) was 20.3 µM (inactive) and the GI50 (BT-549) was 23.1 µM (inactive). For the same compound, the GI50 (RXF 393) was 1.57 µM (inactive), the GI50 (M14) was 5.47 µM (inactive) and the GI50 (NCI-H522) was 14.6 µM (inactive). For the same compound, the GI50 (ACHN) was 33.7 µM (inactive), the GI50 (UACC-257) was 22.4 µM (inactive) and the GI50 (HCT-15) was 13.3 µM. The GI50 (SF-539) was 6.37 µM (inactive), the GI50 (SNB-19) was 23.7 µM (inactive) and the GI50 (MOLT-4) was 15.9 µM (inactive). The GI50 (CAKI-1) was 21.6 µM (inactive) and the GI50 (OVCAR-8) was 4.43 µM (inactive).

In the case of `CC(C)OC(=O)c1ccc(CCC2=CC(=O)C=CC2=O)cc1`, the GI50 (HCC 2998) was 16.8 µM (inactive), the GI50 (EKVX) was 11.5 µM (inactive) and the GI50 (NCI-H460) was 21.8 µM (inactive). For the same compound, the GI50 (NCI/ADR-RES) was 7.78 µM (inactive), the GI50 (HL-60) was 0.773 µM (active) and the GI50 (T47D) was 2.17 µM (inactive). The GI50 (OVCAR-4) was 14.8 µM (inactive), the GI50 (TK-10) was 9.73 µM (inactive) and the GI50 (BT-549) was 5.25 µM (inactive). The GI50 (RXF 393) was 11.8 µM (inactive), the GI50 (M14) was 15.2 µM (inactive) and the GI50 (NCI-H522) was 1.9 µM (inactive). The GI50 (ACHN) was 7.89 µM (inactive), the GI50 (UACC-257) was 12.1 µM (inactive) and the GI50 (HCT-15) was 8.81 µM. The GI50 (SF-539) was 5.45 µM (inactive), the GI50 (SNB-19) was 21.6 µM (inactive) and the GI50 (MOLT-4) was 2.1 µM (inactive). For the same compound, the GI50 (CAKI-1) was 1.98 µM (inactive) and the GI50 (OVCAR-8) was 7.21 µM (inactive).
